From patent publication US20240382475A1, “Quinazoline Derivative, Or Preparation Method Therefor And Use Thereof” (Zhejiang Hisun Pharmaceutical Co., Ltd., priority 2021, published 2024)

Assays:
KRAS-G12C/SOS1 = target: T1, KRAS-G12C/SOS1 (Homo sapiens, UniProt Q07889); experiment: Blocking the binding of KRAS G12C protein to SOS1 (Cisbio KRAS-G12C/SOS1 binding assay kit, TR-FRET); conditions: Tag1-SOS1 and Tag2-KRAS-G12C, TR-FRET 665/620; read-out: IC50 (nM) Inhibition of KRAS-G12C/SOS1 binding
T1 construct: purchased Cisbio 63ADK000CB16PEG
T1 sequence (Q07889 1-1333): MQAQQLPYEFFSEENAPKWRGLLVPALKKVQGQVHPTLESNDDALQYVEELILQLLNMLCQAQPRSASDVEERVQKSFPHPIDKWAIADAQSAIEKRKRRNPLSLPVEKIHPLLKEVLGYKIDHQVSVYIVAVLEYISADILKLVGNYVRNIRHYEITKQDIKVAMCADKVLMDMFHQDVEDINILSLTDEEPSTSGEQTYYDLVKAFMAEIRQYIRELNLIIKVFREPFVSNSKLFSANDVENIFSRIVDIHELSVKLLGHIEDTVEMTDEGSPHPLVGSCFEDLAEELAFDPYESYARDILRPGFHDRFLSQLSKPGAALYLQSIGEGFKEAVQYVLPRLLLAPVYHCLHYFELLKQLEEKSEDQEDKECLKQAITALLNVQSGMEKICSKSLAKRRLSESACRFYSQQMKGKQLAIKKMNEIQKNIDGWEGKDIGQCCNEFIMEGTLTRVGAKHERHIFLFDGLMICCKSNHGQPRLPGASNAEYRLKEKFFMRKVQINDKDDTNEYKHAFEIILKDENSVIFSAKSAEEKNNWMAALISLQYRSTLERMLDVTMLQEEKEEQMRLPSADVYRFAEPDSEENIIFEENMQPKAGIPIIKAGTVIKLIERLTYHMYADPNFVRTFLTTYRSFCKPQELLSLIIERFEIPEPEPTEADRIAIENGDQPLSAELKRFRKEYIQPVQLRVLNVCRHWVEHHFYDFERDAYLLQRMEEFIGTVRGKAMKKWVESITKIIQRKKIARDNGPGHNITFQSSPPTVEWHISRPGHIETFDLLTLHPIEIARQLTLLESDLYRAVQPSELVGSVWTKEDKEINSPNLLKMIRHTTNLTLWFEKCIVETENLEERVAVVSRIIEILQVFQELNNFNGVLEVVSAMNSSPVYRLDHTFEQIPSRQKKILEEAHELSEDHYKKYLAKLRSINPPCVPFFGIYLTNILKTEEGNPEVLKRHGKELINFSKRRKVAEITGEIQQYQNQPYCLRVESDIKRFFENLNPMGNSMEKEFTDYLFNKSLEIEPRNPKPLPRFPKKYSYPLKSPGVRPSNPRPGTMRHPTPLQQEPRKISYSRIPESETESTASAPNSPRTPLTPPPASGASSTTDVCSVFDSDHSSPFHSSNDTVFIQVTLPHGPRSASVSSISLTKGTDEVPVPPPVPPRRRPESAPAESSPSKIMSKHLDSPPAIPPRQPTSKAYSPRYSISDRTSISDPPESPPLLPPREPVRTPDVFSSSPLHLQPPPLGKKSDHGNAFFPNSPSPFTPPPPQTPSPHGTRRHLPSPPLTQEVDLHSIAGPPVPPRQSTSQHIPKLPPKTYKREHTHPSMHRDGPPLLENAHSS
Excerpt: The following method was used to determine the abilities of compounds of the invention to block the interaction of SOS1 with the KRAS G12C protein in vitro. KRAS-G12C/SOS1 BINDING ASSAY KITS (Art. No. 63ADK000CB16PEG) from Cisbio was used in this method. Please refer to the kit instruction for detailed experimental operations.
The experimental process can be briefly described as follows: diluent buffer (Art. No. 62DLBDDF) was used to prepare a working solution with a concentration of 5× for Tag1-SOS1 and Tag2-KRAS-G12C protein. The test compounds were dissolved in DMSO to prepare storage solutions of 10 mM, and then the solutions were diluted with dilution buffer for later use. First, 2 μL of the test compound (the final concentrations of the reaction system were 10000 nM-0.1 nM) was added to the well, then 4 μL of Tag1-SOS1 5× working solution and 4 μL of Tag2-KRAS-G12C 5× working solution were added, and the above mixture was centrifuged, mixed, and stood for 15 minutes; then 10 μL of premixed anti-Tag1-Tb^3+ and anti-Tag2-XL665 were added, and the mixture was incubated at room temperature for 2 hours; finally, a microplate reader was used in […] mode to measure the fluorescence intensity of each well emitting wavelengths of 620 nm and […] under the excitation wavelength of 304 nm, and the fluorescence intensity ratio 665/620 in each well was calculated. Compared with the fluorescence intensity ratio of a control group (0.1% DMSO), the percentage inhibition rates of the test compounds at each concentration were calculated, and the IC50 values of the compounds were obtained by performing nonlinear regression analysis with logarithmic values of the compound concentration-inhibition rate by GraphPad Prism 5 software, which was shown in Table 1.

OCI-AML5 cells = experiment: Inhibition of OCI-AML5 cell proliferation (CellTiter-Glo); type: cell-based; conditions: Homo sapiens, OCI-AML-5; OCI-AML5 cells (SOS1 N233Y mutation), 120 hours
Protocol: The following method was used to determine the influence of the compounds of the present invention on OCI-AML5 cells proliferation. OCI-AML5 cells (containing SOS1 N233Y mutation) were purchased from Nanjing Kebai Biotechnology Co., Ltd. and cultured in MEMα medium containing 10% fetal bovine serum, 100 U penicillin, and 100 μg/mL streptomycin. The activities of the cells were determined by CellTiter-Glo® Luminescent Cell Viability Assay Kit (Promega, Art. No. G7573).
The experimental method was operated according to the steps in the kit instruction, which were briefly described as follows: the test compounds were first dissolved in DMSO to prepare storage solutions of 10 mM, and then diluted with culture mediums to prepare test samples. The final concentrations of the compounds were 10000 nM to 0.15 nM. Cells in logarithmic phase were inoculated in a 96-well cell culture plate with 1,000 cells per well, after cultured overnight in 5% CO2 incubator at 37° C., the test compounds were added to the incubator to continue the culture for 120 hours. After the culture was completed, 50 μL of CellTiter-Glo detection solution was added to each well, shaken for 5 minutes and then stood for 10 minutes. Then, a Luminescence mode was used to read the luminescence values of each well of the samples on a microplate reader.

p-ERK1/2 in DLD-1 cells = experiment: Inhibition of p-ERK1/2 in DLD-1 cells (Cisbio Advanced phospho-ERK1/2 kit); type: cell-based; conditions: Homo sapiens; DLD-1 cells (KRAS G13D mutation), hEGF 5 nM stimulation; read-out: IC50 (nM) Inhibition on p-ERK½ in DLD-1 cells
Excerpt: The following method was used to determine the inhibition activities of the compounds of the present invention on p-ERK1/2 in DLD-1 cells. The Advanced phospho-ERK1/2 (Thr202/tyr2O4) kit (Art. No. 64AERPEH) from Cisbio was used in this method. Please refer to the kit instruction for detailed experimental operations. DLD-1 cells (containing KRAS G13D mutation) were purchased from the Cell Resource Center of Shanghai Institutes for Biological Sciences, Chinese Academy of Sciences.
The experimental process can be briefly described as follows: DLD-1 cells were cultured in RPMI 1640 complete medium containing 10% fetal bovine serum, 100 U penicillin, 100 μg/mL streptomycin and 1 mM Sodium Pyruvate. DLD-1 cells were plated in a 96-well plate at 30,000 cells per well, after cultured overnight in 5% CO2 incubator at 37° C. with complete culture medium. The test compounds were dissolved in DMSO to prepare storage solutions of 10 mM, and then diluted with RPMI 1640 basic mediums. 90 μL of RPMI 1640 basic mediums containing the test compounds at the corresponding concentration were added to each well. The final concentrations of the test compounds in the reaction system were 10,000 nM to 0.15 nM, and were placed in a cell culture incubator for 3 hours and 40 minutes. Subsequently, 10 μL of hEGF (purchased from Roche, Art. No. 11376454001) prepared with RPMI 1640 basic medium was added to a final concentration of 5 nM, and placed in the incubator for culturing for 20 minutes. The cell supernatant was discarded, and the cells were washed with PBS on ice-bath. Then, 45 μl of 1× cell phospho/total protein lysis buffer (component of Advanced phospho-ERK1/2 kit) was added to each well for lysis. The 96-well plate was placed on ice for 0.5 hours to lyse, and then the lysate was detected according to the instruction of the Advanced phospho-ERK1/2 (Thr202/tyr2O4) kit. Finally, the microplate reader was used in […] mode to measure the fluorescence intensity of each well emitting wavelengths of 620 nm and […] under the excitation wavelength of 304 nm, and the fluorescence intensity ratio 665/620 in each well was calculated. By comparing with the fluorescence intensity ratio of a control group (0.1% DMSO), the percentage inhibition rates of the test compounds at each concentration were calculated, and the IC50 values of the compounds were obtained by performing nonlinear regression analysis with logarithmic values of the compound concentration-inhibition rate by GraphPad Prism 5 software, which can be seen in Table 3.

NCI-H358 cells = experiment: Inhibition of NCI-H358 cell proliferation under 3D non-anchored conditions (CellTiter-Glo 3D); type: cell-based; conditions: Homo sapiens, NCI-H358 cells (KRAS G12C mutation), 120 hours
Protocol: The following method was used to determine the effects of the compounds of the present invention on NCI-H358 cell proliferation under three-dimensional (3D) non-anchored conditions. NCI-H358 cells (containing KRAS G12C mutation) were purchased from the Cell Resource Center of Shanghai Institutes for Biological Sciences, Chinese Academy of Sciences, and cultured in RPMI 1640 medium containing 10% fetal bovine serum, 100 U penicillin, 100 μg/mL streptomycin and 1 mM Sodium Pyruvate. The activities of the cells were determined by CellTiter-Glo® 3D Cell Viability Assay Kit (Promega, Art. No. G9683).
The experimental method was operated according to the steps in the kit instruction, which can be briefly described as follows: the test compounds were first dissolved in DMSO to prepare storage solutions of 10 mM, and then diluted with culture mediums to prepare test samples. The final concentrations of the compounds were 10000 nM to 0.15 nM. Cells in logarithmic phase were inoculated in an ultra-low adsorption 384-well cell culture plate (PerkinElmer, #3830) with 2000 cells per well, and the test compounds were added and cultured for 120 hours. After the culture was completed, 30 μL of CellTiter-Glo 3D detection solution was added to each well, shaken for 30 minutes and then stood for 120 minutes. Then, a Luminescence mode was used to read the luminescence values of each well of the samples on a microplate reader. By comparing with the numerical value of a control group (0.1% DMSO), the percentage inhibition rates of the compounds at each concentration were calculated, and the IC50 values of the compounds inhibiting cell proliferation were obtained by performing nonlinear regression analysis with logarithmic values of the compound concentration-inhibition rate by GraphPad Prism 5 software, which can be seen in Table 4.

Row | Structure (SMILES) | IC50 (KRAS-G12C/SOS1) | IC50 (OCI-AML5 cells) | IC50 (p-ERK1/2 in DLD-1 cells) | IC50 (NCI-H358 cells)
1 | COc1cc2nc(C)nc(N[C@H](C)c3cccc(C#N)c3C)c2cc1N1CC(C#N)C1 [Compound 12, (R)-1-(4-((1-(3-cyano-2-methylphenyl)ethyl)amino)-7-methoxy-2-methylquinazolin-6-yl)azetidine-3-carbonitrile] | 88.4 nM | 23 nM | – | –
2 | COc1cc2nc(C)nc(N[C@H](C)c3cccc(C#N)c3C)c2cc1N1CCN(S(C)(=O)=O)CC1 [Compound 13, (R)-3-(1-((7-methoxy-2-methyl-6-(4-(methylsulfonyl)piperazin-1-yl)quinazolin-4-yl)amino)ethyl)-2-methylbenzonitrile] | – | 25.4 nM | 73.5 nM | –
3 | COc1cc2nc(C)nc(N[C@H](C)c3cccc(C#N)c3C)c2cc1N1CCC(N2CCN(C)CC2)CC1 [Compound 15, (R)-3-(1-((7-methoxy-2-methyl-6-(4-(4-methylpiperazin-1-yl)piperidin-1-yl)quinazolin-4-yl)amino)ethyl)-2-methylbenzonitrile] | 31.7 nM | 3.7 nM | – | –
4 | COc1cc2nc(C)nc(N[C@H](C)c3cccc(C#N)c3C)c2cc1N1CCC2(CC1)CNC2 [Compound 16c, (R)-3-(1-((7-methoxy-2-methyl-6-(2,7-diazaspiro[3.5]nonan-7-yl)quinazolin-4-yl)amino)ethyl)-2-methylbenzonitrile] | 20.3 nM | 13.1 nM | – | –
5 | COc1cc2nc(C)nc(N[C@H](C)c3cccc(C#N)c3C)c2cc1N1CCC(OC)CC1 [Compound 17, (R)-3-(1-((7-methoxy-6-(4-methoxypiperidin-1-yl)-2-methylquinazolin-4-yl)amino)ethyl)-2-methylbenzonitrile] | – | 10.6 nM | 29.2 nM | –
6 | COc1cc2nc(C)nc(N[C@H](C)c3cccc(C#N)c3C)c2cc1N1CCC2(CCN(C(C)=O)CC2)CC1 [Compound 18, (R)-3-(1-((6-(9-acetyl-3,9-diazaspiro[5.5]undecan-3-yl)-7-methoxy-2-methylquinazolin-4-yl)amino)ethyl)-2-methylbenzonitrile] | – | 2.6 nM | – | 6.9 nM
7 | COc1cc2nc(C)nc(N[C@H](C)c3cccc(C#N)c3C)c2cc1N1CCN(CCO)CC1 [Compound 20, (R)-3-(1-((6-(4-(2-hydroxyethyl)piperazin-1-yl)-7-methoxy-2-methylquinazolin-4-yl)amino)ethyl)-2-methylbenzonitrile] | – | – | – | 52.4 nM
8 | COc1cc2nc(C)nc(N[C@H](C)c3cccc(C#N)c3C)c2cc1N1CCC(C(=O)N(C)C)CC1 [Compound 22, (R)-1-(4-((1-(3-cyano-2-methylphenyl)ethyl)amino)-7-methoxy-2-methylquinazolin-6-yl)-N, N-dimethylpiperidine-4-carboxamide] | – | 7.2 nM | 20.9 nM | 15.1 nM
